Laboratory results as given in US12384821B2, “Antimicrobial peptides and compositions, methods, articles and kits relating thereto” (George Mason University, priority 2020, dated 2025).
Like-named read-outs stand apart in the source and are kept apart here. Where no end group is shown, it is not given here.

Columns and labels:
[1] = test system: carbapenem-resistant K. pneumoniae strain (ATCC BAA-1705); type: cell-based, Klebsiella pneumoniae; conditions: for MIC (μM) / MIC (μg/mL): ATCC BAA-1705; for Antibacterial activity against CRKP (in words): CA-MHB, high salt test conditions
Procedure: Klebsiella pneumoniae ATCC BAA-1705 was purchased from the American Type Culture Collection (Manassas, VA) and grown in Cation-Adjusted Mueller Hinton Broth. Bacteria were aliquoted and frozen at −80° C. with 20% glycerol and enumerated via serial dilution and plating prior to experimentation.
The minimum inhibitory concentration (MIC) of the peptides was determined according to Clinical & Laboratory Standards Institute (CLSJ) guidelines. Bacteria were grown overnight on Cation-adjusted Mueller Hinton Agar (BD 211438, CAMHA) at 37° C. Assays were performed in Cation-adjusted Mueller Hinton Broth (BD 212322, CAMHB) in polypropylene 96 well plates (Corning 3879). Each experiment was performed with three replicates at least three times.

G. mellonella = test system: G. mellonella; set-up: species or system Galleria mellonella; conditions: in vivo
Description: (§1) We tested these antimicrobial peptides in the waxworm, G. mellonella.

CRKP infected waxworms = assay: Waxworm infection model (CRKP infected G. mellonella); type: in vivo, Galleria mellonella
Procedure: FIG. 5 is a graph showing waxworm survival curves. Waxworms were injected with 10 μL containing 5×10^5 CFU in their rear left proleg. The waxworms were allowed to recover for 30 minutes at 37° C. They were injected with 10 μL containing the various treatments. They were kept at 37° C. and scored for survival every 24 hours. Each group contained 10 waxworms.
Galleria mellonella larvae were obtained from Vanderhorst Wholesale (Saint Marys, OH, USA). 10 larvae weighing between 250 and 300 mg were randomly assigned to each group. Waxworms were injected with 10 μL containing […] suspended in DPBS in their rear left proleg. The waxworms were then allowed to recover for 30 minutes at 37° C. They were then injected with 10 μL DPBS containing the various treatments into their rear right proleg. They were then kept at 37° C. and scored for survival every 24 hours.
as §1

[2] = test system: K. pneumoniae strain ATCC BAA-1705; assay: DiSC3(5) membrane depolarization assay; type: cell-based, Klebsiella pneumoniae; conditions: PBS, 100, 10 and 1 μg/ml, 20 min
Procedure: FIGS. 2A-2B are graphs showing (A) membrane disruption as measured by ethidium bromide uptake against K. pneumoniae strain ATCC BAA-1705 in PBS at 50 μg/ml. Δ RFU shown is after 20 min incubation, done twice in triplicate. A one-way ANOVA with multiple comparisons was performed to determine statistical significance (* p<0.05; ** p<0.01; *** p<0.001); and (B) membrane depolarization Membrane depolarization was measures using 3,3′-dipropylthiadicarbocyanine iodide (DiSC3(5)) against K. pneumoniae strain ATCC BAA-1705 in PBS at 100, 10 and 1 μg/ml. Δ RFU shown is after 20 min incubation, done twice in triplicate. DRGN-6 refers to SEQ ID NO:6, DRGN-7 refers to SEQ ID NO:6 with N-terminus acetylated, DRGN-8 refers to SEQ ID NO:7, NACATH refers to SEQ ID NO:9.
Membrane depolarization was measured using DiSC3(5) (3,3′-dipropylthiadicarbocyanine iodide) as previously described with some modifications. Stocks of enumerated frozen Klebsiella pneumonia ATCC BAA-1705 were pelleted and washed twice in phosphate buffered saline (PBS) and then resuspended to 4×10^7 CFU/ml in PBS containing 50 μg/ml DiSC3(5). […] The plate was incubated in a fluorescence spectrophotometer (Tecan Infinite 200) and monitored until fluorescence stopped decreasing. […] Readings were taken at 20 minutes after addition of peptide (excitation=635 nm; emission=670 nm). […]

[3] = Circular dichroism spectroscopy, percent alpha-helicity; type: physicochemical; conditions: 100 μg/mL peptide
Procedure: Circular dichroism (CD) analysis of the peptides was performed using a Jasco J-1500 spectropolarimeter. 100 μg/mL of peptide was used in each experiment. Samples were allowed to equilibrate for 5 min prior to data collection at 25° C. in a 1 mm path length cuvette. Spectra were collected from 190 to 260 nm with at 20 nm/min, a data integration time of 4 seconds and a 1 nm bandwidth. Data shown represents the average of four spectra. The peptides were analyzed in 10 mM sodium phosphate buffer (6.12 mM sodium monohydrogen phosphate heptahydrate; 3.92 mM monosodium phosphate anhydrous; pH 7.4), 50% (v/v) trifluoroethanol (TFE) in phosphate buffer, or 60 mM sodium dodecyl sulfate (SDS) in phosphate buffer. Percent contribution to secondary structure was measured using methods described in Raussens, V. et al. (Analytical Biochemistry, 319(1):114-21 (2003)).
The secondary structures of many CAMPs are disordered in the absence of anionic membranes or micelles, but adopt more defined secondary structures in their presence. To detect and measure any changes that the DRGN peptides may undergo based on environment, we studied their structural properties in 10 mM phosphate buffer as a negative control, 60 mM SDS in 10 mM phosphate buffer and 50% 2,2,2-Trifluoroethanol (TFE) in 10 mM phosphate buffer. Phosphate buffer without SDS or TFE provided an environment for studying the conformational properties of the peptides structure in the absence a micelle or membrane. Sodium dodecyl sulfate is an anionic surfactant that can form micelles in aqueous buffers mimicking bacterial membranes and simulating the effects an anionic membrane can have on the conformations of antimicrobial peptides. Addition of trifluoroethanol to aqueous buffer promotes increased structure, usually helicity, in peptides with suitable sequences.

Ac-FRWRRFFRKAKRFLKRHAVSIAIGTVRLLRRFG-NH2 [DRGN-3]
MIC (μM) ([1]; CLSI protocol in CA-MHB): 7.6 µM
MIC (μg/mL) ([1]; CLSI protocol in CA-MHB): 32 µg/mL

Colistin [reference compound]
MIC (μM) ([1]; CLSI protocol in CA-MHB): 3.46 µM
MIC (μg/mL) ([1]; CLSI protocol in CA-MHB): 4 µg/mL

Ac-FRWRRFFRKAKRFLKRHGVSIAIGTVRLLRRFG-NH2 [DRGN-5]
MIC (μM) ([1]; CLSI protocol in CA-MHB): 7.7 µM
MIC (μg/mL) ([1]; CLSI protocol in CA-MHB): 32 µg/mL

H-FRWRRFFRKAKRFLKRHAVSIAIGTVRLLRRFG-OH [DRGN-2]
MIC (μM) ([1]; CLSI protocol in CA-MHB): 7.7 µM
MIC (μg/mL) ([1]; CLSI protocol in CA-MHB): 32 µg/mL

RRWRRFFRKAKRLLRRFG-NH2 [DRGN-9]
MIC (μM) [1]: 6.4 µM
MIC (μg/mL) [1]: 16 µg/mL
Increase in MIC compared to unmodified counterpart DRGN-8 ([1]; C-terminal amidation, decreased effectiveness): 2 fold

RRWRRFFRKAKRIIG-NH2 [DRGN-11]
MIC (μM) [1]: >31 µM
MIC (μg/mL) [1]: >64 µg/mL
Antibacterial activity against CRKP (in words) [1]: virtually inactive

RRWRRFFRKAKRIIG-OH [DRGN-10]
MIC (μM) [1]: >31 µM
MIC (μg/mL) [1]: >64 µg/mL
Antibacterial activity against CRKP (in words) [1]: virtually inactive

RRWRRFFQKAKRLLRRFG [DRGN-6]
Toxicity of peptide alone in waxworm (G. mellonella): none of the peptides DRGN-6, -7 and -8 alone caused toxicity
MIC (μM) [1]: 1.6 µM
MIC (μg/mL) [1]: 4 µg/mL

FRWRRFFRKAKRFLKRHGVSIAIGTVRLLRRFG [VK-CATH4.1]
MIC (μM) ([1]; CLSI protocol in CA-MHB): 7.7 µM
MIC (μg/mL) ([1]; CLSI protocol in CA-MHB): 32 µg/mL

RRWRRFFRKAKRLLRRFG [DRGN-8]
Toxicity of peptide alone in waxworm (G. mellonella): none of the peptides DRGN-6, -7 and -8 alone caused toxicity
MIC (μM) [1]: 3.2 µM
MIC (μg/mL) [1]: 8 µg/mL

RRWRRFFQKAKRFVKRHGVSIAVGAYRIIG [VK-CATH4.2]
MIC (μM) [1]: 8.7 µM
MIC (μg/mL) ([1]; CLSI protocol in CA-MHB): 32 µg/mL

CN(C)c1cc(NC(=O)CNC(C)(C)C)c(O)c2c1C[C@H]1C[C@H]3[C@H](N(C)C)C(O)=C(C(N)=O)C(=O)[C@@]3(O)C(O)=C1C2=O [tigecycline, reference compound]
Survival of CRKP infected caterpillars (CRKP infected waxworms; control antibiotic injected): 100%

CC[C@H](C)[C@H](NC(=O)[C@H](CCCCN)NC(=O)[C@H](CCC(=O)O)NC(=O)[C@H](CCCCN)NC(=O)[C@H](CO)NC(=O)[C@H](CCCCN)NC(=O)[C@H](CCCNC(=N)N)NC(=O)[C@H](Cc1ccccc1)NC(=O)[C@H](Cc1ccccc1)NC(=O)[C@H](CC(=O)O)NC(=O)CNC(=O)[C@H](CC(C)C)NC(=O)[C@@H](N)CC(C)C)C(=O)NCC(=O)N[C@@H](CCCCN)C(=O)N[C@@H](CCC(=O)O)C(=O)N[C@@H](Cc1ccccc1)C(=O)N[C@@H](CCCCN)C(=O)N[C@@H](CCCNC(=N)N)C(=O)N[C@H](C(=O)N[C@H](C(=O)N[C@@H](CCC(N)=O)C(=O)N[C@@H](CCCNC(=N)N)C(=O)N[C@H](C(=O)N[C@@H](CCCCN)C(=O)N[C@@H](CC(=O)O)C(=O)N[C@@H](Cc1ccccc1)C(=O)N[C@@H](CC(C)C)C(=O)N[C@@H](CCCNC(=N)N)C(=O)N[C@@H](CC(N)=O)C(=O)N[C@@H](CC(C)C)C(=O)N[C@H](C(=O)N1CCC[C@H]1C(=O)N[C@@H](CCCNC(=N)N)C(=O)N[C@H](C(=O)N[C@@H](CCC(=O)O)C(=O)N[C@@H](CO)C(=O)O)[C@@H](C)O)C(C)C)[C@@H](C)CC)C(C)C)[C@@H](C)CC [LL-37, reference compound]
Antibacterial activity against CRKP (in words) [1]: very little antibacterial activity
MIC (μM) ([1]; CLSI protocol in CA-MHB): >14 µM
MIC (μg/mL) ([1]; CLSI protocol in CA-MHB): >64 µg/mL

H-RRWRRFFQKAKRLLRRFG-NH2 [DRGN-7]
Toxicity of peptide alone in waxworm (G. mellonella): none of the peptides DRGN-6, -7 and -8 alone caused toxicity
Survival benefit in CRKP infected waxworms (CRKP infected waxworms; single injection 30 min after infection): no survival benefit was observed
MIC (μM) [1]: 1.6 µM
MIC (μg/mL) [1]: 4 µg/mL
Change of MIC compared to DRGN-6 ([1]; increase = decreased effectiveness): no effect on MIC
Membrane depolarization, DiSC3(5) [2]: significant depolarization at all concentrations tested
Percent alpha-helicity, 10 mM phosphate buffer ([3]; 10 mM phosphate buffer): 3.0%
Percent alpha-helicity, SDS ([3]; 60 mM SDS in 10 mM phosphate buffer): 77.0%
Percent alpha-helicity, TFE ([3]; 50% TFE in 10 mM phosphate buffer): 72.6%
